Legend:
E. coli ATCC 25922 = experiment: microbe, parasite or virus in culture
Method: (§1) The MIC were determined by a micro dilution method in Mueller-Hinton broth (MHB) ([Cuenca-Estrella et al., 2010]). The final concentration of bacterial suspension in MHB were 1.0×10^6 CFU/mL. The final concentration of MR-22 ranged 1 ~ 256 μg/mL in 96 wells plate broth at 37°C for 16~18 h. Imipenem was employed as positive control, bacterial grown without treatment as negative control and MHB as blank control. MIC determination was performed by reading the OD600 nm. Take 100 μL samples in holes that have never seen bacterial growth and place them on the LB agar board. The concentration of MR-22 with no bacterial growth was defined as the MBC.

[1] = system: E. coli clinical strain E01; experiment: microbe, parasite or virus in culture
Method: (§2) The clinical strains used in this study were obtained from a tertiary healthcare facility located in Guiyang, a city situated within the Guizhou Province of China. The E. coli ATCC 25922 was obtained from the Key and Characteristic Laboratory of Modern Pathogen Biology at Guizhou Medical University in Guiyang, China. All strains were stored at –80°C in LB medium and routinely cultured at LB medium at 37°C.
as §1

[2] = system: E. coli clinical strain E02; experiment: microbe, parasite or virus in culture
Method: as §2, §1

[3] = system: E. coli clinical strain E03; experiment: microbe, parasite or virus in culture
Method: as §2, §1

[4] = system: E. coli clinical strain E04; experiment: microbe, parasite or virus in culture
Method: as §2, §1

[5] = system: E. coli clinical strain E05; experiment: microbe, parasite or virus in culture
Method: as §2, §1

[6] = system: E. coli clinical strain E06; experiment: microbe, parasite or virus in culture
Method: as §2, §1

[7] = system: E. coli clinical strain E07; experiment: microbe, parasite or virus in culture
Method: as §2, §1

[8] = system: E. coli clinical strain E08; experiment: microbe, parasite or virus in culture
Method: as §2, §1

[9] = system: E. coli clinical strain E09; experiment: microbe, parasite or virus in culture
Method: as §2, §1

[10] = system: E. coli clinical strain E10; experiment: microbe, parasite or virus in culture
Method: as §2, §1

[11] = system: E. coli clinical strain E11; experiment: microbe, parasite or virus in culture
Method: as §2, §1

[12] = system: E. coli clinical strain E12; experiment: microbe, parasite or virus in culture
Method: as §2, §1

[13] = system: E. coli clinical strain E13; experiment: microbe, parasite or virus in culture
Method: as §2, §1

[14] = system: E. coli clinical strain E14; experiment: microbe, parasite or virus in culture
Method: as §2, §1

[15] = system: E. coli clinical strain E15; experiment: microbe, parasite or virus in culture
Method: as §2, §1

[16] = system: E. coli clinical strain E16; experiment: microbe, parasite or virus in culture
Method: as §2, §1

[17] = system: E. coli clinical strain E17; experiment: microbe, parasite or virus in culture
Method: as §2, §1

[18] = system: E. coli clinical strain E18; experiment: microbe, parasite or virus in culture
Method: as §2, §1

[19] = system: E. coli clinical strain E19; experiment: microbe, parasite or virus in culture
Method: as §2, §1

[20] = system: E. coli clinical strain E20; experiment: microbe, parasite or virus in culture
Method: as §2, §1

[21] = system: E. coli clinical strain E21; experiment: microbe, parasite or virus in culture
Method: as §2, §1

[22] = system: E. coli clinical strain E22; experiment: microbe, parasite or virus in culture
Method: as §2, §1

[23] = system: E. coli ATCC 25922 and clinically drug resistant isolated strains; experiment: microbe, parasite or virus in culture; type: cell-based, Escherichia coli; settings: Escherichia coli; E. coli ATCC 25922 and 22 clinical isolates; microdilution, MHB; read-out: MIC over all strains tested
Method: as §1

E. coli E19 = experiment: Mice peritonitis model; type: in vivo; settings: C57BL/6J mice, E19 peritonitis; 10 mg/kg 1 h after infection; after 36 h; ten mice per group; control group 8.73 ± 0.38
Method: This study utilized female C57BL/6J mice aged 6-8 weeks, weight range of 18-20 g, which were obtained from SPF Biotechnology Co., Ltd (Beijing, China). The animals were housed under maintained on a standard 12 h light/12 h dark cycle. All animal experiments were conducted in accordance with the Ethical Principles in Animal Research adopted by Guizhou Medical University and were approved by the Institutional Animal Care and Use Committee.
To evaluate the in vivo efficacy of MR-22, we used a mice peritonitis model. A total of 60 mice were divided into three groups: treatment group (10 mg/kg MR-22, intraperitoneal injection), positive control group (10 mg/kg imipenem, intraperitoneal injection), and normal control group (PBS, intraperitoneal injection). Peritonitis was induced by intraperitoneal injection of 1.0 × 10^8 CFU bacterial inoculum in 0.2 mL of E. coli E19. Survival rates were recorded every 12 h for 7 days.
To study the protective effects of MR-22, 10 mice in each group were sacrificed, and peritoneal lavage fluid, blood, liver, and kidney were collected 36 h after administration. The number of colonies in peritoneal lavage fluid and blood were determined by culturing on LB agar, while the tissues were fixed in 4% paraformaldehyde and subjected to hematoxylin and eosin staining to study the morphology.

Question: With `C[C@@H](O)[C@H]1C(=O)N2C(C(=O)O)=C(SCCN=CN)C[C@H]12` [IPM, imipenem] as the compound, how does the “susceptibility category (S/I/R) given with the MIC” value (“susceptibility category” for short) (E. coli ATCC 25922; E. coli ATCC 25922) read?
Answer: S

Question: What about the MIC (E. coli ATCC 25922; Escherichia coli, ATCC25922, 18 h) of the same compound?
Answer: ≤ 1 µg/mL

Question: And the MIC ([1]; Escherichia coli, 18 h)?
Answer: ≤ 1 µg/mL

Question: What about the “susceptibility category” value ([1]; strain E01) of the same compound?
Answer: S

Question: And the MIC ([2]; Escherichia coli, 18 h)?
Answer: ≤ 1 µg/mL

Question: And the “susceptibility category” value ([2]; strain E02)?
Answer: S

Question: And the MIC ([3]; Escherichia coli, 18 h)?
Answer: ≤ 1 µg/mL

Question: And the “susceptibility category” value ([3]; strain E03)?
Answer: S

Question: What about the MIC ([4]; Escherichia coli, 18 h) of the same compound?
Answer: ≤ 1 µg/mL

Question: And the “susceptibility category” value ([4]; strain E04)?
Answer: S

Question: And the MIC ([5]; Escherichia coli, 18 h)?
Answer: ≤ 1 µg/mL

Question: What about the “susceptibility category” value ([5]; strain E05) of the same compound?
Answer: S

Question: And the MIC ([6]; Escherichia coli, 18 h)?
Answer: ≤ 1 µg/mL

Question: And the “susceptibility category” value ([6]; strain E06)?
Answer: S

Question: What about the MIC ([7]; Escherichia coli, 18 h) of the same compound?
Answer: ≤ 1 µg/mL

Question: And the “susceptibility category” value ([7]; strain E07)?
Answer: S

Question: What about the MIC ([8]; Escherichia coli, 18 h) of the same compound?
Answer: ≤ 1 µg/mL

Question: And the “susceptibility category” value ([8]; strain E08)?
Answer: S

Question: What about the MIC ([9]; Escherichia coli, 18 h) of the same compound?
Answer: ≤ 1 µg/mL

Question: What about the “susceptibility category” value ([9]; strain E09) of the same compound?
Answer: S

Question: What about the MIC ([10]; Escherichia coli, 18 h) of the same compound?
Answer: ≤ 1 µg/mL

Question: What about the “susceptibility category” value ([10]; strain E10) of the same compound?
Answer: S

Question: And the MIC ([11]; Escherichia coli, 18 h)?
Answer: ≤ 1 µg/mL

Question: And the “susceptibility category” value ([11]; strain E11)?
Answer: S

Question: What about the MIC ([12]; Escherichia coli, 18 h) of the same compound?
Answer: ≤ 1 µg/mL

Question: What about the “susceptibility category” value ([12]; strain E12) of the same compound?
Answer: S

Question: And the MIC ([13]; Escherichia coli, 18 h)?
Answer: ≤ 1 µg/mL

Question: What about the “susceptibility category” value ([13]; strain E13) of the same compound?
Answer: S

Question: And the MIC ([14]; Escherichia coli, 18 h)?
Answer: ≤ 1 µg/mL

Question: And the “susceptibility category” value ([14]; strain E14)?
Answer: S

Question: And the MIC ([15]; Escherichia coli, 18 h)?
Answer: ≤ 1 µg/mL

Question: What about the “susceptibility category” value ([15]; strain E15) of the same compound?
Answer: S

Question: And the MIC ([16]; Escherichia coli, 18 h)?
Answer: ≤ 1 µg/mL

Question: And the “susceptibility category” value ([16]; strain E16)?
Answer: S

Question: And the MIC ([17]; Escherichia coli, 18 h)?
Answer: ≤ 1 µg/mL

Question: What about the “susceptibility category” value ([17]; strain E17) of the same compound?
Answer: S

Question: And the MIC ([18]; Escherichia coli, 18 h)?
Answer: ≤ 1 µg/mL

Question: And the “susceptibility category” value ([18]; strain E18)?
Answer: S

Question: And the MIC ([19]; Escherichia coli, 18 h)?
Answer: ≤ 1 µg/mL

Question: What about the “susceptibility category” value ([19]; strain E19) of the same compound?
Answer: S

Question: And the MIC ([20]; Escherichia coli, 18 h)?
Answer: ≤ 1 µg/mL

Question: And the “susceptibility category” value ([20]; strain E20)?
Answer: S

Question: And the MIC ([21]; Escherichia coli, 18 h)?
Answer: ≤ 1 µg/mL

Question: And the “susceptibility category” value ([21]; strain E21)?
Answer: S

Question: What about the MIC ([22]; Escherichia coli, 18 h) of the same compound?
Answer: ≤ 1 µg/mL

Question: What about the “susceptibility category” value ([22]; strain E22) of the same compound?
Answer: S

Question: And the MIC [23]?
Answer: ≤ 1 µg/mL

Question: And the “bacterial content in the peritoneal lavage fluid” value (E. coli E19)?
Answer: 4.20 ± 0.25 Log10CFU/mL
